Drawing on patent publication US20170044104A1, “NEW PESTICIDAL COMPOUNDS AND USES” (BAYER CROPSCIENCE AG, priority 2013, published 2017), this text covers mortality and Emax for 52 compounds.

One experiment concerns Haemonchus contortus. As to the kind of experiment: Haemonchus contortus (HAEMCO) larval mortality assay. As to conditions: 120 h; for mortality at 20 ppm: application rate 20 ppm; for mortality at 20 ppm / mortality at 4 ppm: after 5 days, read-out: activity (percentage of larval mortality); for mortality at 4 ppm: application rate 4 ppm; for Emax at 0.8 ppm / Emax at 4 ppm / Emax at 20 ppm: comparative test, 5 dat, read-out: % Efficacy. As to the method:
(§1) Solvent: dimethyl sulfoxide
(§2) To produce a suitable preparation of active compound, 10 mg of active compound are dissolved in 0.5 ml solvent, and the concentrate is diluted with “Ringer's solution” to the desired concentration.
Approximately 40 larvae of the red stomach worm (Haemonchus contortus) are transferred into a test tube containing compound solution.
After 5 days percentage of larval mortality are recorded. 100% efficacy means all larvae are killed, 0% efficacy means no larvae are killed.

A further experiment concerns Cooperia curticei. As to the kind of experiment: Cooperia curticei (COOPCU) larval mortality assay. The settings on record: 120 h, after 5 days, read-out: activity (percentage of larval mortality); for mortality at 20 ppm: application rate 20 ppm; for mortality at 4 ppm: application rate 4 ppm. Here is the method: as §1, §2
Approximately 40 nematode larvae (Cooperia curticei) are transferred into a test tube containing the compound solution.
After 5 days percentage of larval mortality is recorded. 100% efficacy means all larvae are killed; 0% efficacy means no larvae are killed.

Broadly, the mortality is the share of the test organisms that died. Take `O=C(NCCc1cccc(-c2cncc(F)c2)c1)c1ccccc1C(F)(F)F` [Example 1-3]: the mortality at 20 ppm in the experiment on Haemonchus contortus is 90%.
With `Cc1nc(Cl)ccc1-c1cccc(CCNC(=O)c2ccccc2C(F)(F)F)c1` [Example 1-5], in the experiment on Haemonchus contortus, the mortality at 20 ppm worked out at 90%.
On the same count and under the same terms, in the case of `Cc1cc(-c2ccc(CCNC(=O)c3ccccc3C(F)(F)F)cc2)ccn1` [Example 1-11] it was 80%.
As to `O=C(NCCc1ccc(-c2ccc(C(F)(F)F)nc2)cc1)c1ccccc1C(F)(F)F` [Example 1-12], the figures for the mortality at 20 ppm with Cooperia curticei and with Haemonchus contortus were 100% and 90%, respectively.
For `O=C(NCCc1ccc(-c2ccncc2)cc1)c1ccccc1C(F)(F)F` [Example 1-13], the mortality at 20 ppm with Cooperia curticei came to 80%.
As to `O=C(NCCc1ccc(-c2cncc(F)c2)cc1)c1ccccc1C(F)(F)F` [Example 1-14], the mortality at 20 ppm with Cooperia curticei stood at 100%; with Haemonchus contortus, 90%.
Consider `O=C(NCCc1ccc(-c2ccc(Cl)nc2)cc1)c1ccccc1C(F)(F)F` [Example 1-15], for which, in the experiment with Cooperia curticei, the mortality at 20 ppm came to 100%. In the experiment with Haemonchus contortus, the mortality at 4 ppm turned out to be 90%.
Consider `O=C(NCCc1ccc(-c2ccc(OCC(F)(F)F)nc2)cc1)c1cccnc1C(F)(F)F` [Example 1-18], for which the mortality at 20 ppm with Cooperia curticei was 100%.
On the same count and under the same terms, with `Cc1ncccc1-c1ccc(CCNC(=O)c2cccnc2C(F)(F)F)cc1` [Example 1-21] the figure was 100%; with `Cc1occc1-c1ccc(CCNC(=O)c2cccnc2C(F)(F)F)cc1` [Example 1-23], 80%.
On to `O=C(NCCc1ccc(-c2ccnc(Cl)c2)cc1)c1cccnc1C(F)(F)F` [Example 1-26], for which the mortality at 20 ppm in the experiment on Cooperia curticei came out at 90%.
In the case of `O=C(NCCc1ccc(-c2ccnc(F)c2)cc1)c1cccnc1C(F)(F)F` [Example 1-27], the mortality at 20 ppm with Cooperia curticei and in the experiment with Haemonchus contortus was 80% in each case.
In the case of `O=C(NCCc1ccc(-c2cnccc2Cl)cc1Cl)c1ccccc1C(F)(F)F` [Example 1-31], the mortality at 20 ppm in the experiment on Cooperia curticei was 100%.
With `O=C(NCCc1ccc(-c2ccc(OCC(F)(F)F)nc2)cc1Cl)c1ccccc1C(F)(F)F` [Example 1-32], the mortality at 20 ppm in the experiment with Cooperia curticei is 100%; in the experiment with Haemonchus contortus, 90%.
As for `O=C(NCCc1ccc(-c2ccnc(F)c2)cc1Cl)c1ccccc1C(F)(F)F` [Example 1-34], the mortality at 20 ppm with Cooperia curticei is 100%.
In the case of `O=C(NCCc1ccc(-c2ccoc2)cc1Cl)c1ccccc1C(F)(F)F` [Example 1-35], in the experiment with Cooperia curticei, the mortality at 20 ppm turned out to be 100%. In the experiment on Haemonchus contortus, the mortality at 20 ppm is 100%, the Emax at 0.8 ppm was 80%, the Emax at 4 ppm was 90% and the Emax at 20 ppm was found to be 100%.
Regarding `O=C(NCCc1ccc(-c2ccncc2)cc1Cl)c1ccccc1C(F)(F)F` [Example 1-36], the mortality at 20 ppm in the experiment with Cooperia curticei was found to be 80%.
On to `O=C(NCCc1ccc(-c2ccc(C(F)(F)F)nc2)cc1Cl)c1ccccc1C(F)(F)F` [Example 1-38], for which the mortality at 20 ppm in the experiment with Cooperia curticei was found to be 100%. In the experiment on Haemonchus contortus, the mortality at 20 ppm is 100%, the Emax at 0.8 ppm was 100%, the Emax at 4 ppm came out at 100% and the Emax at 20 ppm came to 100%.
Turning to `Cc1occc1-c1ccc(CCNC(=O)c2ccccc2C(F)(F)F)c(Cl)c1` [Example 1-40], the mortality at 20 ppm in the experiment on Cooperia curticei and in the experiment on Haemonchus contortus was 100% in each case.
As to `O=C(NCCc1ccc(-c2cccc(Cl)n2)cc1Cl)c1ccccc1C(F)(F)F` [Example 1-41], the results for the mortality at 20 ppm with Cooperia curticei and with Haemonchus contortus were 100% and 90%, respectively.
With `CC(C)Oc1ccc(-c2ccc(CCNC(=O)c3ccccc3C(F)(F)F)c(Cl)c2)cn1` [Example 1-43], the mortality at 20 ppm with Cooperia curticei is 100%. Besides, in the experiment on Haemonchus contortus, the mortality at 20 ppm came out at 100%, the Emax at 0.8 ppm was 100%, the Emax at 4 ppm stood at 100% and the Emax at 20 ppm was found to be 100%.
In the case of `O=C(NCCc1ccc(-c2cc(Cl)nc(Cl)c2)cc1Cl)c1ccccc1C(F)(F)F` [Example 1-46], the mortality at 20 ppm in the experiment with Cooperia curticei was determined as 100%.
The same measure, in the same setting: in the case of `Cc1nc(C)c(-c2ccc(CCNC(=O)c3ccccc3C(F)(F)F)c(Cl)c2)s1` [Example 1-50] it was 90%; in that of `O=C(NCCc1ccc(-c2ccnc(F)c2)cc1)c1ccccc1C(F)(F)F` [Example 1-51], 100%.
On the same count and under the same terms, with `O=C(NCCc1ccc(-c2ccoc2)cc1)c1ccccc1C(F)(F)F` [Example 1-52] the figure was 100%.
Same read-out and setting: with `O=C(NCCc1ccc(-c2cccc(Cl)n2)cc1)c1ccccc1C(F)(F)F` [Example 1-55] the figure was 100%.
For `O=C(NCCc1ccc(-c2cccnc2Cl)cc1)c1ccccc1C(F)(F)F` [Example 1-56], the mortality at 20 ppm in the experiment on Cooperia curticei and in the experiment with Haemonchus contortus was 80% in each case.
As for `O=C(NCCc1ccc(-c2cccnc2)cc1)c1ccccc1C(F)(F)F` [Example 1-57], the values for the mortality at 20 ppm with Cooperia curticei and in the experiment on Haemonchus contortus were 100% and 80%, respectively.
Consider `O=C(NCCc1ccc(-c2ccc(OCC(F)(F)F)nc2)cc1)c1ccccc1C(F)(F)F` [Example 1-58], for which the mortality at 20 ppm in the experiment on Cooperia curticei came to 100%; in the experiment on Haemonchus contortus, 80%.
With `Cc1occc1-c1ccc(CCNC(=O)c2ccccc2C(F)(F)F)cc1` [Example 1-59], in the experiment with Cooperia curticei, the mortality at 20 ppm turned out to be 100%.
Turning to `Cn1cc(-c2ccc(CCNC(=O)c3ccccc3C(F)(F)F)cc2)cn1` [Example 1-60], the mortality at 20 ppm with Cooperia curticei worked out at 100%; with Haemonchus contortus, 80%.
As to `O=C(NCCc1ccc(-c2ccc(F)nc2)cc1)c1ccccc1C(F)(F)F` [Example 1-62], the mortality at 20 ppm with Cooperia curticei came to 100%. Also, in the experiment with Haemonchus contortus, the mortality at 20 ppm amounted to 100%, the Emax at 0.8 ppm was found to be 80%, the Emax at 4 ppm is 90% and the Emax at 20 ppm was found to be 100%.
As for `O=C(NCCc1ccc(-c2ccnc(Cl)c2)cc1)c1ccccc1C(F)(F)F` [Example 1-64], the mortality at 20 ppm in the experiment on Cooperia curticei turned out to be 100%; with Haemonchus contortus, 80%.
In the case of `O=C(NCCc1ccc(-c2ccnc(Cl)c2)cc1Cl)c1ccccc1C(F)(F)F` [Example 1-65], in the experiment with Cooperia curticei, the mortality at 20 ppm came out at 90%.
Turning to `O=C(NCC(F)(F)c1ccc(-c2ccc(Cl)nc2)cc1Cl)c1cccnc1C(F)(F)F` [Example 1-67], in the experiment with Cooperia curticei, the mortality at 4 ppm was found to be 90%. Besides, the mortality at 20 ppm in the experiment with Haemonchus contortus came out at 90%.
Consider `O=C(NCC(F)c1ccc(-c2ccc(C(F)(F)F)nc2)cc1Cl)c1cccnc1C(F)(F)F` (centres unmarked) [Example 1-71], for which the mortality at 20 ppm came to 100% in the experiment on Cooperia curticei and 90% with Haemonchus contortus.
The like results for `O=C(NCC(F)c1ccc(-c2ccc(C(F)(F)F)nc2)cc1Cl)c1nccnc1C(F)(F)F` (centres unmarked) [Example 1-72] were, in that order, 100% and 100%.
In the same order, the values of `O=C(NCC(F)c1ccc(-c2cccnc2Cl)cc1Cl)c1nccnc1C(F)(F)F` (centres unmarked) [Example 1-79] are 100% and 100%.
As for `O=C(NCC(F)c1ccc(-c2cncc(Cl)c2)cc1Cl)c1cccnc1C(F)(F)F` (centres unmarked) [Example 1-83], the mortality at 20 ppm in the experiment on Cooperia curticei and in the experiment with Haemonchus contortus was 100% each time.
Take `CC(C)Oc1ccc(-c2ccc(C(F)(F)CNC(=O)c3ccccc3C(F)(F)F)c(Cl)c2)cn1` [Example 1-91]: the mortality at 20 ppm in the experiment with Cooperia curticei amounted to 100%.
For the compound `CC(F)(CNC(=O)c1nccnc1C(F)(F)F)c1ccc(-c2cncc(F)c2)cc1Cl` (centres unmarked) [Example 1-102], the mortality at 20 ppm in the experiment with Cooperia curticei and with Haemonchus contortus was 100% throughout.
Consider `CC(F)(CNC(=O)c1c(F)cccc1F)c1ccc(-c2cncc(F)c2)cc1Cl` (centres unmarked) [Example 1-103], for which the mortality at 20 ppm with Haemonchus contortus came to 100%.
Take `O=C(NCC(F)(F)c1ccc(-c2ccc(C(F)(F)F)nc2)cc1F)c1ccccc1C(F)(F)F` [Example 1-105]: in the experiment with Cooperia curticei, the mortality at 20 ppm is 90%.
Regarding `COc1ccc(-c2ccc(C(F)(F)CNC(=O)c3ccccc3C(F)(F)F)c(F)c2)cn1` [Example 1-110], the mortality at 20 ppm in the experiment with Cooperia curticei is 100%; in the experiment on Haemonchus contortus it was 90%.
In the same order, the values of `O=C(NCC(F)(F)c1ccc(-c2ccc(Cl)nc2)cc1F)c1ccccc1C(F)(F)F` [Example 1-114] are 100% and 80%.
Consider `COc1cncc(-c2ccc(C(F)(F)CNC(=O)c3ccccc3C(F)(F)F)c(C(F)(F)F)c2)c1` [Example 1-121], for which the mortality at 20 ppm in the experiment with Cooperia curticei and in the experiment with Haemonchus contortus was 80% in each case.
Regarding `O=C(NCC(F)(F)c1ccc(-c2cncc(F)c2)cc1C(F)(F)F)c1ccccc1C(F)(F)F` [Example 1-122], the mortality at 20 ppm with Cooperia curticei and in the experiment on Haemonchus contortus was 100% throughout.
Take `O=C(NCC(F)(F)c1ccc(-c2ccc(C(F)(F)F)nc2)cc1C(F)(F)F)c1ccccc1C(F)(F)F` [Example 1-124]: the mortality at 20 ppm in the experiment on Cooperia curticei was 90%. In addition, the mortality at 4 ppm with Haemonchus contortus was found to be 90%.
With `CN(C)c1ccc(-c2ccc(C(F)(F)CNC(=O)c3ccccc3C(F)(F)F)c(C(F)(F)F)c2)cn1` [Example 1-125], the mortality at 20 ppm in the experiment with Cooperia curticei was 80%.
Consider `COc1ccc(-c2ccc(C(F)(F)CNC(=O)c3ccccc3C(F)(F)F)c(C(F)(F)F)c2)cn1` [Example 1-127], for which the mortality at 20 ppm with Cooperia curticei and with Haemonchus contortus was 100% in each case.
Consider `CN(C)c1ncc(-c2ccc(C(F)(F)CNC(=O)c3ccccc3C(F)(F)F)c(F)c2)cn1` [Example 1-146], for which the mortality at 20 ppm in the experiment on Cooperia curticei is 100%.
Turning to `CN(C)c1ncc(-c2ccc(C(F)(F)CNC(=O)c3ccccc3C(F)(F)F)c(C(F)(F)F)c2)cn1` [Example 1-149], the mortality at 4 ppm in the experiment with Cooperia curticei turned out to be 90%.
